Experimental data as given in patent publication US20090176846A1, “N-hydroxy-4- {5- [4- (5-isopropyl-2-methyl-1, 3-thiazol-4-yl) phenoxy] pentoxy} benzamidine 2 methanesulfonic acid salt” (priority 2005, published 2009).
Values after ≈ are worked out from the molar mass of the structure shown. Where a name gives a salt, the structure may show the parent alone. Read-outs that look alike come from different tables or passages of the source.

Experiments:
[1] = Solubility in various solvents at room temperature; assay type: physicochemical
From the text: The 2 methanesulfonic acid salt, prepared in Example 1, and the 1 methanesulfonic acid salt, prepared in Comparative Example 1, of N-Hydroxy-4-{5-[4-(5-isopropyl-2-methyl-1,3-thiazol-4-yl)phenoxy]pentoxy} benzamidine, and the N-Hydroxy-4-{5-[4-(5-isopropyl-2-methyl-1,3-thiazol-4-yl)phenoxy]pentoxy} benzamidine, prepared in Reference Preparation Example 1, were examined for solubility (μg/mL) in various solvents at room temperature.

[2] = Pharmacokinetic evaluation in SD rats; assay type: in vivo; details: 50 mg/kg; for Cmax (maximum blood concentration): n=4
Description: The 2 methanesulfonic acid salt, prepared in Example 1, and the 1 methanesulfonic acid salt, prepared in Comparative Example 1, of N-Hydroxy-4-{5-[4-(5-isopropyl-2-methyl-1,3-thiazol-4-yl)phenoxy]pentoxy} benzamidine, and the N-Hydroxy-4-{5-[4-(5-isopropyl-2-methyl-1,3-thiazol-4-yl)phenoxy]pentoxy} benzamidine, prepared in Reference Preparation Example 1, were individually administered to SD rats in a dosage of 50 mg/kg. At given time points (0, 0.5, 1, 1.5, 2, 3, 5 and 8 hrs), rats were mildly anesthetized with diethyl ether, and blood samples were collected from the orbital venous plexus and stored at −20° C. until concentration analysis. The plasma samples were mixed with an equal volume of an internal standard substance solution (prepared by dissolving betamethasone in acetonitrile to give a final concentration of 30 μg/ml) with agitation for. 1 min, and was centrifuged at 12,000 rpm for 10 min. Active components of the plasma samples were analyzed by HPLC (Model: Waters Module 1). From the obtained data, pharmacokinetic parameters (maximum blood concentration (Cmax) and area under the blood concentration-time curve (AUC) were calculated by noncompartment analysis using the WinNonlin program (Version 1.0, Scientific Consulting Inc., USA). The results are given in Table 5, below.

[3] = Stability under accelerated conditions (40±2° C./75±5% RH), HPLC content; assay type: physicochemical; details: for Content (%): 40±2° C./75±5% RH, cap-opened vial, HPLC area percentage
Description: The 2 methanesulfonic acid salt of N-Hydroxy-4-{5-[4-(5-isopropyl-2-methyl-1,3-thiazol-4-yl)phenoxy]pentoxy} benzamidine, prepared in Example 1, was placed into a transparent glass vial, and stored at a cap-opened state under accelerated conditions (40±2° C./75±5% RH) for a period of two weeks. Thereafter, the sample was analyzed by HPLC (Waters Module 1). The analysis was performed using a column packed with an octadecyl-silylated silica gel (Shiseido CAPCELL PAK C18, UG 120, Particle size 5 μm) under conditions: UV detection: 256 nm, injection volume: 10 μl, mobile-phase flow rate: 1.5 mL/min. The amount of the compound was calculated as an area percentage.

[4] = test system: allergic inflammatory diseases (asthma); details: asthmatic mice, cited from earlier work
bone fractures = details: rats, compared to control not treated; cited from earlier work
[5] = distilled water, room temperature
[6] = dose-dependent, compared to control group

Structure (SMILES): CS(=O)(=O)O.Cc1nc(-c2ccc(OCCCCCOc3ccc(C(=N)NO)cc3)cc2)c(C(C)C)s1 [1 methanesulfonic acid salt, N-Hydroxy-4-{5-[4-(5-isopropyl-2-methyl-1,3-thiazol-4-yl)phenoxy]pentoxy} benzamidine 1 methanesulfonic acid salt]
- solubility [1, 5]: 414.34 µg/mL
- solubility ([1]; pH 1.2, room temperature): 1,092.98 μg/mL
- solubility ([1]; pH 4.0, room temperature): 0.99 µg/mL
- Cmax (maximum blood concentration) [2]: 1.40 ± 0.11 µg/mL
- AUC (area under the blood concentration-time curve) ([2]; n=4, 0-8 hrs): 7.01 ± 0.6 µg·h/mL

Structure (SMILES): Cc1nc(-c2ccc(OCCCCCOc3ccc(C(=N)NO)cc3)cc2)c(C(C)C)s1 [2 methanesulfonic acid salt, N-Hydroxy-4-{5-[4-(5-isopropyl-2-methyl-1,3-thiazol-4-yl)phenoxy]pentoxy} benzamidine 2 methansulfonic acid salt]
- solubility [1, 5]: 3,535.33 μg/mL
- solubility ([1]; pH 1.2, room temperature): 1,686.71 μg/mL
- solubility fold higher than the 1 methanesulfonic acid salt ([1]; pH 4.0): about 3 fold
- solubility ([1]; solvent of pH 4.0 (composition not named), pH 4, aqueous buffer, pH 4.0, room temperature, read-out: solubility): 3 µg/mL
- change in content in accelerated test ([3]; accelerated test at 40° C., two weeks): no change
- Content (%) ([3]; after 1 week): 99.87%
- Content (%) ([3]; after 2 weeks): 99.86%
- Content (%) ([3]; after 2 days): 99.86%
- Content (%) ([3]; early stage): 99.85%
- Cmax (maximum blood concentration) [2]: 1.67 ± 0.32 µg/mL
- AUC (area under the blood concentration-time curve) ([2]; n=4, 0-8 hrs): 10.3 ± 0.8 µg·h/mL
- bioavailability ([2]; SD, rat, plasma, read-out: bioavailability relative to the 1 methanesulfonic acid salt): > 46%

Structure (SMILES): Cc1nc(-c2ccc(OCCCCCOc3ccc(C(=N)NO)cc3)cc2)c(C(C)C)s1 [Free base, N-Hydroxy-4-{5-[4-(5-isopropyl-2-methyl-1,3-thiazol-4-yl)phenoxy]pentoxy} benzamidine]
- alveolar area ([4]; compared to control group): significantly increased
- number of eosinophils [4, 6]: significantly decreased
- number of eosinophils in bronchoalveolar lavage fluid [4, 6]: significantly decreased
- total number of leukocytes [4, 6]: significantly decreased
- increase in lung weight ([4]; oral administration for 18 days, compared to control given sterile distilled water): suppressed
- solubility [1, 5]: 3.48 µg/mL (≈ 7.67 µM)
- solubility ([1]; solvent of pH 1.2 (composition not named), pH 1.2, simulated gastric fluid, pH 1.2, room temperature, read-out: solubility): 951 µg/mL (≈ 2100 µM)
- AUC ([2]; SD, rat, plasma, n=4, 0-8 hrs, read-out: AUC (area under the blood concentration-time curve)): 5310 ± 490 ng·h/mL
- Cmax ([2]; SD, rat, plasma, n=4, read-out: Cmax (maximum blood concentration)): 1090 ± 170 ng/mL
- bone mineral content of callus (bone fractures): significantly enhanced
- bone tissue density (bone fractures): significantly increased
- callus volume (bone fractures): significantly reduced
- content of connective and soft tissues in the callus tissue (bone fractures): significantly reduced
- mechanical strength of callus (bone fractures): significantly enhanced
